Measured values reported in patent publication US8158389B2, “Products and methods for in vivo secretion of monatin” (priority 2005, dated 2012).

How the values were obtained:
E. coli MG1655 = assay: Monatin excretion with 2.5 mM sodium decanoate, E. coli MG1655 strains with pUC19, marA or baeR (30, 72 h); format: cell-based, Escherichia coli
Description: The strain used for the experiment was E. coli MG1655: : aspC/proA/pProNde together with the marA gene from E. coli cloned into the pUC19 vector (GenBank/EMBL accession number L09137). The control strain was E. coli MG1655: : aspC/proA/pProNde along with the pUC19 vector. The marA gene was amplified from E. coli W3110 with PCR technology (known to one skilled in the art) using the primers E. coli MarASalIF-5′[…]3′ (SEQ ID NO. 24) and E. coli MarABamHIR-5′[…]3′ (SEQ ID NO. 25). For inoculum, the E. coli strains were grown overnight at 37° C. and 250 rpm in Luria-Bertani (“LB”) medium with 100 μg/mL ampicillin and 50 μg/mL kanamycin.
For the experimental treatments, Trp-1+glucose medium, a minimal medium that has been used for increased production of tryptophan in E. coli cells (Zeman, et al. Folia Microbiol. 35:200-204, (1990)), was prepared as follows. To 800 mL nanopure water the following reagents were added: 2 g (NH4)2SO4 and 13.6 g KH2PO4. The pH was adjusted to 7.0, the volume was increased to 948 mL, and the medium was autoclaved. Following sterilization, 0.2 g MgSO4.7H2O, 0.01 g CaCl2.2H2O, and 0.5 mg FeSO4.7H2O were added to the medium in a 1.8 mL volume followed by addition of 0.2 mL of Neidhardt's micronutrient solution. Neidhardt F. C., et al., “Culture medium for Enterobacteria,” J. Bacteriol. 119:736-746, (1974). Neidhardt's medium includes (per liter): 0.18 g (NH4)6(MO7)24.4H2O, 1.24 g H3BO3, 0.36 g CoCl2.6H2O, 0.12 g CuSO4 (anhydrous), 0.8 g MnCl2.4H2O, and 0.14 g ZnSO4.7H2O. A 50% glucose solution was prepared separately and sterile-filtered. Forty mL of glucose solution and 10 mL of 1 M 3-Morpholinopropanesulfonic acid (“MOPS”) buffer were added to the base medium (950 mL) for a 1 L final volume.
Conditions for the treatments included 250 rpm agitation throughout and 37° C. up to induction, then, 30° C. following induction. At an OD600 nm between 0.35-0.50, induction of the plasmid genes was initiated. At induction, 1.0 mM IPTG, 0.5% L-arabinose, 0.5 mM pyridoxine hydrochloride, and 0.2 mLs of Balch's vitamins were added. Additions of 10 g/L L-tryptophan, 10 g/L sodium pyruvate, 0.04 mM pyridoxal-5′-phosphate (“PLP”) and 0.2% Tween® 20 (polyoxyethylene 20-sorbitan monolaurate) were made 3.0 hours following induction. At 24 hours after inoculation, 10 g/L of sodium pyruvate was added to each flask again. Some treatments included 2.5 mM sodium decanoate addition at 3.0 hours following induction.
The strains used for the experiment were E. coli. MG1655 : : aspC/proA/pProNde in combination with either baeR or no insert in the pUC19 vector. The baeR gene was amplified from E. coli W3110 by using primers, E. coli baeRSalIF 5′[…]3′ (SEQ ID NO. 26) and E. coli baeRBamHIR 5′[…]3′ (SEQ ID NO. 27), which introduced SalI and BamHI sites at the end of the amplified fragment. The PCR fragment was cloned between the SalI and BamHI sites of the vector pUC19 (GenBank/EMBL accession number L09137). For inoculum, the E. coli strains were grown overnight at 37° C. and 250 rpm in Luria-Bertani (“LB”) medium with 100 μg/mL ampicillin and 50 μg/mL kanamycin.
For the experimental treatments, Trp-1+glucose medium, a minimal medium that has been used for increased production of tryptophan in E. coli cells (Zeman et al. Folia Microbiol. 35:200-204, (1990)), was prepared as follows. To 800 mL nanopure water the following reagents were added: 2 g (NE4)2SO4 and 13.6 g KH2PO4. The pH was adjusted to 7.0, the volume was increased to 948 mL, and the medium was autoclaved. Following sterilization, 0.2 g MgSO4.7H2O, 0.01 g CaCl2.2H2O, and 0.5 mg FeSO4.7H2O were a to the medium in a 1.8 mL volume followed by addition of 0.2 mL of Neidhardt's micronutrient solution. Neidhardt F. C., et al., “Culture medium for Enterobacteria,” J. Bacteriol. 119:736-746 (1974). Neidhardt's medium includes (per liter): 0.18 g (NH4)6(MO7)24.4H2l O, 1.24 g H3BO3, 0.36 g CoCl2.6H2O, 0.12 g CuSO4 (anhydrous), 0.8 g MnCl2.4H2O, and 0.14 g ZnSO4.7H2O. […]

[1] = test system: E. coli MG1655 ΔAcrAB 6-16::aspCproAproNde; assay: AcrAB k.o. validation: growth (OD 600 nm) with novobiocin / sodium decanoate, knockout strain; format: cell-based, Escherichia coli; conditions: sodium decanoate 2.5 mM; novobiocin 0 ppm
Method: Single chloramphenicol-resistant colonies were purified by restreaking on appropriate selective media and single colonies were tested by PCR as previously described for the BW25113 knockout strains, to verify the presence of the emrB and acrAB knockouts. The effects of the emrB and acrAB knockouts on the EmrAB and AcrAB transporter systems respectively were determined by assessing the phenotype of the transport mutants using appropriate antibiotics and comparison to wild type control microorganisms as shown in Table 3.1 and Table 3.2 below.

[2] = E. coli MG1655 AspC ProA pProNde del BaeR pUC19, n = 2
[3] = E. coli MG1655 AspC ProA pProNde del MarA pUC19, n = 2
[4] = E. coli MG1655 aspC proA pProNde del pUC19 (control), n = 2

CCCCCCCCCC(=O)[O-].[Na+] [sodium decanoate]
Mean monatin per dry cell weight, 30 hours (E. coli MG1655; [2]): 16.2 mg/g | Mean monatin per dry cell weight, 72 hours (E. coli MG1655; [2]): 66.8 mg/g | Mean monatin per dry cell weight, 30 hours (E. coli MG1655; [3]): 8.5 mg/g | Mean monatin per dry cell weight, 72 hours (E. coli MG1655; [3]): 51.9 mg/g | Mean monatin per dry cell weight, 30 hours (E. coli MG1655; [4]): 2.4 mg/g | Mean monatin per dry cell weight, 72 hours (E. coli MG1655; [4]): 2.7 mg/g | OD 600 nm at 19 hours [1]: 0.885
